Read-outs that look alike come from different tables or passages of the source.
How the values were obtained:
hERG receptor = hERG receptor (Homo sapiens (Human), UniProt Q12809); test: HERGBD: inhibition of specific [3H]-Dofetilide binding to the hERG receptor
Procedure: Inhibition of Specific Binding to the hERG—Receptor (HERGBD)
A HEK cell line with stable transfected human ERG receptor was used for the assay. The cells were grown adherently and maintained in DULBECCOS' MEM medium with 10% FBS, 1% non-essential amino acids, 1% Penicillin/Streptomycin and 400 μg/ml G418 (Calbiochem).
For binding assays and membrane preparations the cell culture medium was removed, cells were washed with PBS. Crude membranes for radioligand binding experiments were prepared by scraping the cells off the dishes in ice cold 20 mM HEPES/0.1 mM KCl/pH 7.2. The cell suspension was homogenized on ice (Ultra turrax, 3×20 sec.) and the homogenate was spun for 10 min (1° C., 1000 g, OPTIMA, SW28, 2800 U/min). The supernatant was than centrifuged for 40 min at 100000 g (1° C., OPTIMA, SW28, 23000 U/min). The membrane pellet was re-suspended in 20 mM HEPES/0.1 mM KCl pH 7.2, frozen and stored at −80° C.
After thawing on the day of the assay, the membrane suspension was diluted further with 20 mM HEPES/0.1 mM KCl/pH 7.2.
The incubation mixture of 200 μl contained 1.5 nmol/l 3H-Dofetilide, optimized amount of membrane preparation, 20 mM HEPES/0.1 mM KCl/(pH 7.2) and inhibitor in 1% DMSO. Nonspecific binding was estimated in the presence of […] Dofetilide. The samples were incubated for 90 min. at RT.
Binding was terminated by filtration of the incubated membrane preparations using Filtermat B (Pharmacia, Uppsala Sweden) and a Micro Cell Harvester (Skatron, Lier, Norway). The Filtermat B had been presoaked with 1% polyethylen imine and carefully washed with 0.05 M Tris/HCl-buffer pH=7.7 after the filtration to separate free and bound radioactivity. The filters were counted in a scintillation counter (Betaplate 1205, Berthold, Wildbad, Germany) in order to determine the specific binding of [^3H]-Dofetilide.
The optimal amount of membrane preparation in the assay was determined and optimized for each membrane preparation separately in front of using the membranes in compound testing.
For pipetting of the incubation mixture we routinely use the robot Biomek2000 (Fa. Beckman).

rat NR1/NR2B receptor = rat NR1/NR2B receptor (Rattus norvegicus (Rat), UniProt P35439+Q00960); test: NR2B binding assay: inhibition of specific [3H]-Ifenprodil binding to the rat NR1/NR2B receptor; settings: [3H]-Ifenprodil binding, rat brain membranes; for inhibition at 1 µM: 1 μM test compound, read-out: % INH @ 1 μM; for inhibition at 10 µM: 10 μM test compound, read-out: % INH @ 10 μM
Sequence of rat NR1/NR2B receptor (Q00960 27-1482, other chains not shown): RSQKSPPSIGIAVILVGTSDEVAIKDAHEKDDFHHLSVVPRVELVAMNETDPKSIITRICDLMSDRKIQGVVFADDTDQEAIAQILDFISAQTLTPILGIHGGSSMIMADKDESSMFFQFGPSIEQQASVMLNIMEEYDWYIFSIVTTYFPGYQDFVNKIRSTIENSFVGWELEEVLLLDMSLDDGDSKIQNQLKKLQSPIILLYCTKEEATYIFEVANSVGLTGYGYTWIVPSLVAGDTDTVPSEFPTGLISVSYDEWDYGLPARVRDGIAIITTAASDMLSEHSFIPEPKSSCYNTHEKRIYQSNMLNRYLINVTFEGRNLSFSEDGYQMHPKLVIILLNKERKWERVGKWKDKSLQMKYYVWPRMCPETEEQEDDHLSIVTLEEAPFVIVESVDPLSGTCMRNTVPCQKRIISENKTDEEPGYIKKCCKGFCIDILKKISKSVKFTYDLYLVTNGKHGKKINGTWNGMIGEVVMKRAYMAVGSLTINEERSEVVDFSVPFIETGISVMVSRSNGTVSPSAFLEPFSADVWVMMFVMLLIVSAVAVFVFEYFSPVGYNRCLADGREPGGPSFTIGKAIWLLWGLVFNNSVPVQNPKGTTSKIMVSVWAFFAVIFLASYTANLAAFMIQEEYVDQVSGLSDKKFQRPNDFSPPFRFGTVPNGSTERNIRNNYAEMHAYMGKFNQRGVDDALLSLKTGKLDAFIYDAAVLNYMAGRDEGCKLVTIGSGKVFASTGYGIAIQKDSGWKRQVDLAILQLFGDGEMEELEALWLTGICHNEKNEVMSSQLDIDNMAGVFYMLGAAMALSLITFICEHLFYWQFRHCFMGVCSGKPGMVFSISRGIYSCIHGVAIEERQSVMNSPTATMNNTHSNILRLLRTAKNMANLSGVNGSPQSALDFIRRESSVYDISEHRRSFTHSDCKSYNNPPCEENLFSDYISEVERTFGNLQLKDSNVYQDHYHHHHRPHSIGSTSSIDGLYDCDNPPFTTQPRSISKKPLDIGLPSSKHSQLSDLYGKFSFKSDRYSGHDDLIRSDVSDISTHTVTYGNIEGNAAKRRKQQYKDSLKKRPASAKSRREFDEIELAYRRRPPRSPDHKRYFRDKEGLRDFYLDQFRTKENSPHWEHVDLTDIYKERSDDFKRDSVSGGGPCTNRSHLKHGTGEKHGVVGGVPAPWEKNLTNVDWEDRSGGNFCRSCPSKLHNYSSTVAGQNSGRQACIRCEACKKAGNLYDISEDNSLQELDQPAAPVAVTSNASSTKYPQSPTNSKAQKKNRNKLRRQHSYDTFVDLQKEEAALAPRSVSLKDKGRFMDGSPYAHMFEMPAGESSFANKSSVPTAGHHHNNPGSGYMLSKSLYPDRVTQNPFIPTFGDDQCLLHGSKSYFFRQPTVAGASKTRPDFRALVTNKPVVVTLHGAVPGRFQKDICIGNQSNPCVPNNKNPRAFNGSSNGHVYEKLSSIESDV
Procedure: Biological Assays Inhibition of Specific Binding to the Rat NR1/NR2B Receptor
Male Wistar rats (180 to 200 g) were killed by suffocation in a CO2 chamber for two minutes. Whole brains without cerebellum were removed and dissected on ice, placed into closed vials and stored at −70° C.
Membrane fractions were prepared and tested using standard techniques. At the time of the assay, 1 g of the brains was placed into 25 ml of 50 mM Tris/10 mM EDTA buffer, pH 7.1, (25 vol. per g of original tissue) and homogenized for 30 sec at 20000 rpm with an Ultraturrax T25 (Jahnke & Kunkel, IKA-Labortechnik, Staufen, Germany).
The supernatant was discarded and the pellet was homogenized on ice for 30 sec at 20000 rpm with an Ultraturrax and again centrifuged at 48000 g for 30 minutes at 4° C. The resultant pellet was resuspended in 25 ml of 50 mM Tris/10 mM EDTA buffer, homogenized for 30 sec with an Ultraturrax, aliquoted, frozen at −70° C. and stored until use.
After thawing on the day of the assay, a 5 ml membrane aliquot was centrifuged at 48000 g for 30 min at 4° C. The pellet was resuspended in 5 ml of 5 mM Tris/1 mM EDTA buffer, pH 7.4, homogenized for 30 sec at 20000 rpm with an Ultraturrax and centrifuged at 48000 g for 30 min at 4° C. This was repeated twice. The final pellet was homogenized in 5 ml of 5 mM Tris/1 mM EDTA buffer at 4° C. with an Ultraturrax and used for the Ifenprodil-binding assay as described in the following.
Nonspecific binding was estimated in the presence of […] CP101.606. The samples were incubated for 60 min. at 4° C.
The incubation was terminated by filtration of the membrane preparations using Filtermat B (Pharmacia, Uppsala Sweden) and a Micro Cell Harvester (Skatron, Lier, Norway). The Filtermat B had been presoaked with 1% polyethylene imine and carefully washed with 50 mM Tris/HCl-buffer pH 7.7 after the filtration to separate free and bound radioactivity.
The optimal amount of membrane preparation in the assay was determined and optimized for each membrane preparation separately before the test.
For pipetting of the incubation mixture the robot Biomek2000 (Fa. Beckman) was used.
For determination of IC50 values the Hill-plot, 2-parameter-model was used.

[1] = [3H]-Dofetilide binding, membranes of HEK cells with human ERG receptor, read-out: IC50

Sequence of hERG receptor (Q12809 whole entry): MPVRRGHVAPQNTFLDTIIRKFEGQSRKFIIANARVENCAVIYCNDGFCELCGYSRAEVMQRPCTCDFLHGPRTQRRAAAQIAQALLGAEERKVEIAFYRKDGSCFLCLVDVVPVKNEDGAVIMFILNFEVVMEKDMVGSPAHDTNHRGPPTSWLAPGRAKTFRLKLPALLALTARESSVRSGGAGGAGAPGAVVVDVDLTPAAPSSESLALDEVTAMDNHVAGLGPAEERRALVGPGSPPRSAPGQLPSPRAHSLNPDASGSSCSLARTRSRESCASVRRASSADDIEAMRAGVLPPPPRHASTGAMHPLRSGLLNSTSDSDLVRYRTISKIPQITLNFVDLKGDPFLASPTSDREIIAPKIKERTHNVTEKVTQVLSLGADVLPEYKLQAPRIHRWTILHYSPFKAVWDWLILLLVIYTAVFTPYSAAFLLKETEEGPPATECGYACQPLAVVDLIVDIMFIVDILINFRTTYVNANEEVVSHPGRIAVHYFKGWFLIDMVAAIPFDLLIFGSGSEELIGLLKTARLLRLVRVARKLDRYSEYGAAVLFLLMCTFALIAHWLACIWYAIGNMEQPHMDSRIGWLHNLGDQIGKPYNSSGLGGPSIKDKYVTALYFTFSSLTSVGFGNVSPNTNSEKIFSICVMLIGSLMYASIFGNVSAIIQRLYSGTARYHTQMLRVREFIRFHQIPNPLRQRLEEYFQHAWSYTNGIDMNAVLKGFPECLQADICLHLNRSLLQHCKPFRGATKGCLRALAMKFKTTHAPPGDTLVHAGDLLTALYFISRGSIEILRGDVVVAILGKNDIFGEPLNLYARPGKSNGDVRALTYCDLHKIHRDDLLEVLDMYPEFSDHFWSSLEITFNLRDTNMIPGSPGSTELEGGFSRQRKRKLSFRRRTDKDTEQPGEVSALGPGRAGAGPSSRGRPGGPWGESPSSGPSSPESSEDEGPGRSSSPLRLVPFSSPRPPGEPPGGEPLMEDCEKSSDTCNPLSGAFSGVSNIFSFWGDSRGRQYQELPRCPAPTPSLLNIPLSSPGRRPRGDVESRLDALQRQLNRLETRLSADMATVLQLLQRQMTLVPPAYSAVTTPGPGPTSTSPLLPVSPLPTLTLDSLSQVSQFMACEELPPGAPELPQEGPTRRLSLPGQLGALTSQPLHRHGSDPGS

SMILES | IC50 (hERG receptor; [1]) | IC50 (rat NR1/NR2B receptor) | IC50 (hERG receptor) | inhibition at 1 µM (rat NR1/NR2B receptor) | inhibition at 10 µM (rat NR1/NR2B receptor)
Cc1cc(Cn2cc(-c3ccc(Cl)c(OC(F)F)c3)cn2)n(C)n1 [Example 3, 5-[[4-[4-Chloro-3-(difluoromethoxy)phenyl]pyrazol-1-yl]methyl]-1,3-dimethyl-pyrazole] | 23.3 µM | 0.146 µM | – | – | –
Cn1nccc1Cn1cc(-c2ccc(Cl)c(OC(F)F)c2)cn1 [Example 5, 4-[4-Chloro-3-(difluoromethoxy)phenyl]-1-[(2-methylpyrazol-3-yl)methyl]pyrazole] | – | 0.148 µM | 64.3 µM | – | –
CCn1ccc(Cn2cc(-c3ccc(Cl)c(OC(F)F)c3)cn2)n1 [Example 8, 3-[[4-[4-Chloro-3-(difluoromethoxy)phenyl]pyrazol-1-yl]methyl]-1-ethyl-pyrazole] | – | 0.281 µM | 41 µM | – | –
CCn1cc(CCn2cc(-c3ccc(Cl)c(OC(F)F)c3)cn2)cn1 [Example 10, 4-[4-Chloro-3-(difluoromethoxy)phenyl]-1-[2-(1-ethylpyrazol-4-yl)ethyl]pyrazole] | – | 0.25 µM | 18.4 µM | – | –
CCC(CC)n1ccc(Cn2cc(-c3ccc(Cl)c(OC(F)F)c3)cn2)n1 [Example 11, 3-[[4-[4-Chloro-3-(difluoromethoxy)phenyl]pyrazol-1-yl]methyl]-1-(1-ethylpropyl)pyrazole] | 12.7 µM | – | – | 2.7% | –
FC(F)Oc1cc(-c2cnn(Cc3ccn(C4CCCC4)n3)c2)ccc1Cl [Example 12, 3-[[4-[4-Chloro-3-(difluoromethoxy)phenyl]pyrazol-1-yl]methyl]-1-cyclopentyl-pyrazole] | – | 0.28 µM | 8.06 µM | – | –
Cc1cc(Cn2cc(-c3ccc(Cl)c(OC(F)F)c3)cn2)[nH]n1 [Example 13, 4-[4-Chloro-3-(difluoromethoxy)phenyl]-1-[(3-methyl-1H-pyrazol-5-yl)methyl]pyrazole] | – | 0.0221 µM | 37 µM | – | –
CCCc1cc(Cn2cc(-c3ccc(Cl)c(OC(F)F)c3)cn2)n[nH]1 [Example 15, 3-[[4-[4-Chloro-3-(difluoromethoxy)phenyl]pyrazol-1-yl]methyl]-5-propyl-1H-pyrazole] | 7.93 µM | 0.163 µM | – | – | –
Cn1cc(Cn2cc(-c3ccc(F)c(OC(F)F)c3)cn2)cn1 [Example 19, 4-[3-(difluoromethoxy)-4-fluoro-phenyl]-1-[(1-methylpyrazol-4-yl)methyl]pyrazole] | – | 0.202 µM | > 100 µM | – | –
Cn1ccc(Cn2cc(-c3cccc(OC(F)(F)F)c3)cn2)n1 [Example 23, 1-Methyl-3-[[4-[3-(trifluoromethoxy)phenyl]pyrazol-1-yl]methyl]pyrazole Succinate] | – | 1.59 µM | 9.24 µM | – | –
Cn1ccc(Cn2cc(-c3ccc(Cl)c(C(F)F)c3)cn2)n1 [Example 24, 3-[[4-[4-chloro-3-(difluoromethyl)phenyl]pyrazol-1-yl]methyl]-1-methyl-pyrazole] | 4.89 µM | 0.41 µM | – | – | –
Cc1cc(Cn2cc(-c3ccc(Cl)c(C(F)F)c3)cn2)n(C)n1 [Example 25, 5-[[4-[4-Chloro-3-(difluoromethyl)phenyl]pyrazol-1-yl]methyl]-1,3-dimethyl-pyrazole] | 49.6 µM | 0.98 µM | – | – | –
Cc1cc(Cn2cc(-c3ccc(Cl)c(C(F)(F)F)c3)cn2)n(C)n1 [Example 29, 5-[[4-[4-chloro-3-(trifluoromethyl)phenyl]pyrazol-1-yl]methyl]-1,3-dimethyl-pyrazole Succinate] | – | 2.54 µM | 17.9 µM | – | –
Cn1ccc(Cn2cc(-c3ccc(Cl)c(C(F)(F)F)c3)cn2)n1 [Example 30, 3-[[4-[4-chloro-3-(trifluoromethyl)phenyl]pyrazol-1-yl]methyl]-1-methyl-pyrazole] | – | 1.01 µM | 3.47 µM | – | –
Cc1cc(Cn2cc(-c3ccc(F)c(C(F)F)c3)cn2)n(C)n1 [Example 32, 5-[[4-[3-(Difluoromethyl)-4-fluoro-phenyl]pyrazol-1-yl]methyl]-1,3-dimethyl-pyrazole] | – | 0.323 µM | 38.6 µM | – | –
Cn1cc(Cn2cc(-c3ccc(F)c(C(F)F)c3)cn2)cn1 [Example 33, 4-[3-(Difluoromethyl)-4-fluoro-phenyl]-1-[(1-methylpyrazol-4-yl)methyl]pyrazole] | – | 0.371 µM | > 100 µM | – | –
Cc1n[nH]c(C)c1CCn1cc(-c2ccc(F)c(C(F)F)c2)cn1 [Example 36, 4-[2-[4-[3-(Difluoromethyl)-4-fluoro-phenyl]pyrazol-1-yl]ethyl]-3,5-dimethyl-1H-pyrazole] | – | 0.424 µM | 29.6 µM | – | –
Fc1ccc(-c2cnn(CCc3cn[nH]c3)c2)cc1C(F)F [Example 37, 4-[3-(Difluoromethyl)-4-fluoro-phenyl]-1-[2-(1H-pyrazol-4-yl)ethyl]pyrazole] | – | 2.06 µM | 38.1 µM | – | –
CCn1ccc(Cn2cc(-c3ccc(F)c(C(F)F)c3)cn2)n1 [Example 38, 3-[[4-[3-(Difluoromethyl)-4-fluoro-phenyl]pyrazol-1-yl]methyl]-1-ethyl-pyrazole] | – | 0.443 µM | > 100 µM | – | –
Cc1ccc(-c2cnn(Cc3ccn(C)n3)c2)cc1F [Example 53, 3-[[4-(3-fluoro-4-methyl-phenyl)pyrazol-1-yl]methyl]-1-methyl-pyrazole Succinate] | – | 3.84 µM | – | – | –
Cc1cc(Cn2cc(-c3ccc(F)c(C)c3)cn2)n(C)n1 [Example 54, 5-[[4-(4-fluoro-3-methyl-phenyl)pyrazol-1-yl]methyl]-1,3-dimethyl-pyrazole Succinate] | > 100 µM | – | – | – | –
Cn1ccc(Cn2cc(-c3ccc(Br)cc3)cn2)n1 [Example 79, 3-[[4-(4-bromophenyl)pyrazol-1-yl]methyl]-1-methyl-pyrazole] | – | 4.72 µM | – | – | –
Cn1ccc(Cn2cc(-c3cccc(Br)c3)cn2)n1 [Example 82, 3-[[4-(3-bromophenyl)pyrazol-1-yl]methyl]-1-methyl-pyrazole Succinate] | – | 2.62 µM | – | – | –
Cc1cc(Cn2cc(-c3cc(F)cc(F)c3)cn2)n(C)n1 [Example 83, 5-[[4-(3,5-difluorophenyl)pyrazol-1-yl]methyl]-1,3-dimethyl-pyrazole] | – | 6.02 µM | – | – | –
Cn1ccc(Cn2cc(-c3cc(F)cc(F)c3)cn2)n1 [Example 84, 3-[[4-(3,5-difluorophenyl)pyrazol-1-yl]methyl]-1-methyl-pyrazole] | – | – | – | 14.6% | 45.7%
Cn1ccc(Cn2cc(-c3ccccc3)cn2)n1 [Example 85, 1-methyl-3-[(4-phenylpyrazol-1-yl)methyl]pyrazole] | – | – | – | 22.5% | 25.3%
Cc1cc(Cn2cc(-c3ccccc3)cn2)n(C)n1 [Example 86, 1,3-Dimethyl-5-[(4-phenylpyrazol-1-yl)methyl]pyrazole] | – | – | – | 3.8% | 10.9%
Cc1cc(Cn2cc(-c3ccccn3)cn2)n(C)n1 [Example 105, 2-(1-((1,3-dimethyl-1H-pyrazol-5-yl)methyl)-1H-pyrazol-4-yl)pyridine Succinate] | – | – | – | -1.3% | 4.4%
